# Test results: PubChem BioAssay (NCI)
#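 Tested at 5 concentrations; 48 h exposure; 96-well plates; endpoints linearly interpolated, else capped at highest concentration. GI50 is the concentration that inhibits growth by half. TGI: concentration producing complete growth inhibition.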
# What was measured:
# Assay in all cases: NCI tumour cell line growth inhibition, 48 h
# U251 CNS = tested on: U251 CNS
# HOP-62 NSCLC = tested on: HOP-62 NSCLC
# UACC-62 melanoma = tested on: UACC-62 melanoma
# RPMI-8226 leukemia = tested on: RPMI-8226 leukemia
# SNB-75 CNS = tested on: SNB-75 CNS
# K-562 leukemia = tested on: K-562 leukemia
# MDA-MB-231 breast = tested on: MDA-MB-231 breast
# MDA-MB-435 = tested on: MDA-MB-435
# NCI/ADR-RES ovarian = tested on: NCI/ADR-RES ovarian
# EKVX NSCLC = tested on: EKVX NSCLC
# SK-MEL-28 melanoma = tested on: SK-MEL-28 melanoma
# HCT-116 colon = tested on: HCT-116 colon
# HCC-2998 colon = tested on: HCC-2998 colon
# HCT-15 colon = tested on: HCT-15 colon
# IGROV1 ovarian = tested on: IGROV1 ovarian
# NCI-H226 lung = tested on: NCI-H226 lung
# HT29 colon = tested on: HT29 colon
# SNB-19 CNS = tested on: SNB-19 CNS
# SW-620 colon = tested on: SW-620 colon
# PC-3 prostate = tested on: PC-3 prostate
# MCF7 breast = tested on: MCF7 breast
# T-47D breast = tested on: T-47D breast
# A498 renal = tested on: A498 renal
# 786-0 renal = tested on: 786-0 renal
# SN12C renal = tested on: SN12C renal
# A549 NSCLC = tested on: A549 NSCLC
# SR leukemia = tested on: SR leukemia
# NCI-H522 lung = tested on: NCI-H522 lung
# DU-145 prostate = tested on: DU-145 prostate
# MALME-3M melanoma = tested on: MALME-3M melanoma
# MOLT-4 leukemia = tested on: MOLT-4 leukemia
# KM12 colon = tested on: KM12 colon
# NCI-H23 lung = tested on: NCI-H23 lung
# UO-31 renal = tested on: UO-31 renal
# HOP-92 NSCLC = tested on: HOP-92 NSCLC
# OVCAR-8 ovarian = tested on: OVCAR-8 ovarian
# NCI-H460 lung = tested on: NCI-H460 lung
# SK-MEL-5 melanoma = tested on: SK-MEL-5 melanoma
# OVCAR-5 ovarian = tested on: OVCAR-5 ovarian
# OVCAR-3 ovarian = tested on: OVCAR-3 ovarian
# SK-MEL-2 melanoma = tested on: SK-MEL-2 melanoma
# CAKI-1 renal = tested on: CAKI-1 renal
# HS 578T breast = tested on: HS 578T breast
# SK-OV-3 ovarian = tested on: SK-OV-3 ovarian
# COLO 205 colon = tested on: COLO 205 colon
# OVCAR-4 ovarian = tested on: OVCAR-4 ovarian
# SF-539 CNS = tested on: SF-539 CNS
# TK-10 renal = tested on: TK-10 renal
# UACC-257 melanoma = tested on: UACC-257 melanoma
# RXF 393 renal = tested on: RXF 393 renal
# LOX IMVI melanoma = tested on: LOX IMVI melanoma
# HL-60(TB) leukemia = tested on: HL-60(TB) leukemia
# SF-295 CNS = tested on: SF-295 CNS
# M14 melanoma = tested on: M14 melanoma
# SF-268 CNS = tested on: SF-268 CNS
# CCRF-CEM leukemia = tested on: CCRF-CEM leukemia
# ACHN renal = tested on: ACHN renal
# BT-549 breast = tested on: BT-549 breast
smiles,measurement,setting,value
CN(C)CCCN(c1nc(C(Cl)(Cl)Cl)ns1)c1nc(C(Cl)(Cl)Cl)ns1,GI50,U251 CNS,1760 nM
same,TGI,U251 CNS,3.22 µM
same,GI50,HOP-62 NSCLC,1640 nM
same,TGI,HOP-62 NSCLC,3.07 µM
same,GI50,UACC-62 melanoma,2100 nM
same,TGI,UACC-62 melanoma,4.91 µM
same,GI50,RPMI-8226 leukemia,2190 nM
same,TGI,RPMI-8226 leukemia,5.35 µM
same,GI50,SNB-75 CNS,2170 nM
same,TGI,SNB-75 CNS,7.89 µM
same,GI50,K-562 leukemia,1790 nM
same,TGI,K-562 leukemia,3.93 µM
same,GI50,MDA-MB-231 breast,1190 nM
same,TGI,MDA-MB-231 breast,2600 nM
same,GI50,MDA-MB-435,2050 nM
same,TGI,MDA-MB-435,4.54 µM
same,GI50,NCI/ADR-RES ovarian,1890 nM
same,TGI,NCI/ADR-RES ovarian,4.41 µM
same,GI50,EKVX NSCLC,3.32 µM
same,TGI,EKVX NSCLC,13 µM
same,GI50,SK-MEL-28 melanoma,1900 nM
same,TGI,SK-MEL-28 melanoma,3.5 µM
same,GI50,HCT-116 colon,1660 nM
same,TGI,HCT-116 colon,3.34 µM
same,GI50,HCC-2998 colon,1690 nM
same,TGI,HCC-2998 colon,3.31 µM
same,GI50,HCT-15 colon,1880 nM
same,TGI,HCT-15 colon,4.08 µM
same,GI50,IGROV1 ovarian,2270 nM
same,TGI,IGROV1 ovarian,4.92 µM
same,GI50,NCI-H226 lung,1720 nM
same,TGI,NCI-H226 lung,3.42 µM
same,GI50,HT29 colon,1690 nM
same,TGI,HT29 colon,3.37 µM
same,GI50,SNB-19 CNS,2530 nM
same,TGI,SNB-19 CNS,7.3 µM
same,GI50,SW-620 colon,1670 nM
same,TGI,SW-620 colon,3.18 µM
same,GI50,PC-3 prostate,1940 nM
same,TGI,PC-3 prostate,5.14 µM
same,GI50,MCF7 breast,1900 nM
same,TGI,MCF7 breast,3.62 µM
same,GI50,T-47D breast,2980 nM
same,TGI,T-47D breast,10.5 µM
same,GI50,A498 renal,1920 nM
same,TGI,A498 renal,4.89 µM
same,GI50,786-0 renal,1720 nM
same,TGI,786-0 renal,3.3 µM
same,GI50,SN12C renal,3.42 µM
same,TGI,SN12C renal,11.6 µM
same,GI50,A549 NSCLC,1630 nM
same,TGI,A549 NSCLC,3.78 µM
same,GI50,SR leukemia,1490 nM
same,TGI,SR leukemia,3.53 µM
same,GI50,NCI-H522 lung,1710 nM
same,TGI,NCI-H522 lung,3.45 µM
same,GI50,DU-145 prostate,2750 nM
same,TGI,DU-145 prostate,6.79 µM
same,GI50,MALME-3M melanoma,2180 nM
same,TGI,MALME-3M melanoma,5.01 µM
same,GI50,MOLT-4 leukemia,1930 nM
same,TGI,MOLT-4 leukemia,4.23 µM
same,GI50,KM12 colon,1800 nM
same,TGI,KM12 colon,3.44 µM
same,GI50,NCI-H23 lung,2040 nM
same,TGI,NCI-H23 lung,5.55 µM
same,GI50,UO-31 renal,1470 nM
same,TGI,UO-31 renal,3.08 µM
same,GI50,HOP-92 NSCLC,1640 nM
same,TGI,HOP-92 NSCLC,5.33 µM
same,GI50,OVCAR-8 ovarian,1770 nM
same,TGI,OVCAR-8 ovarian,3.52 µM
same,GI50,NCI-H460 lung,1810 nM
same,TGI,NCI-H460 lung,3.56 µM
same,GI50,SK-MEL-5 melanoma,1600 nM
same,TGI,SK-MEL-5 melanoma,2.95 µM
same,GI50,OVCAR-5 ovarian,1820 nM
same,TGI,OVCAR-5 ovarian,3.8 µM
same,GI50,OVCAR-3 ovarian,2010 nM
same,TGI,OVCAR-3 ovarian,4.09 µM
same,GI50,SK-MEL-2 melanoma,1840 nM
same,TGI,SK-MEL-2 melanoma,3.5 µM
same,GI50,CAKI-1 renal,4.82 µM
same,TGI,CAKI-1 renal,18.5 µM
same,GI50,HS 578T breast,1720 nM
same,TGI,HS 578T breast,4.46 µM
same,GI50,SK-OV-3 ovarian,1880 nM
same,TGI,SK-OV-3 ovarian,4 µM
same,GI50,COLO 205 colon,1470 nM
same,TGI,COLO 205 colon,2850 nM
same,GI50,OVCAR-4 ovarian,2210 nM
same,TGI,OVCAR-4 ovarian,5.58 µM
same,GI50,SF-539 CNS,1910 nM
same,TGI,SF-539 CNS,3.8 µM
same,GI50,TK-10 renal,1930 nM
same,TGI,TK-10 renal,3.58 µM
same,GI50,UACC-257 melanoma,1800 nM
same,TGI,UACC-257 melanoma,3.65 µM
same,GI50,RXF 393 renal,1810 nM
same,TGI,RXF 393 renal,3.21 µM
same,GI50,LOX IMVI melanoma,1580 nM
same,TGI,LOX IMVI melanoma,3.01 µM
same,GI50,HL-60(TB) leukemia,1520 nM
same,TGI,HL-60(TB) leukemia,3.43 µM
same,GI50,SF-295 CNS,1700 nM
same,TGI,SF-295 CNS,3.6 µM
same,GI50,M14 melanoma,1890 nM
same,TGI,M14 melanoma,3.63 µM
same,GI50,SF-268 CNS,3.12 µM
same,TGI,SF-268 CNS,11.4 µM
same,GI50,CCRF-CEM leukemia,2450 nM
same,TGI,CCRF-CEM leukemia,8.03 µM
same,GI50,ACHN renal,1770 nM
same,TGI,ACHN renal,3.53 µM
N=C(N)c1ccc(-c2ccc(-c3ccc(Cl)cc3)o2)o1,GI50,RPMI-8226 leukemia,2120 nM
same,TGI,RPMI-8226 leukemia,4.78 µM
same,GI50,SNB-75 CNS,1500 nM
same,TGI,SNB-75 CNS,2.86 µM
same,GI50,MDA-MB-435,1360 nM
same,TGI,MDA-MB-435,2.69 µM
same,GI50,NCI-H226 lung,2190 nM
same,TGI,NCI-H226 lung,6.46 µM
same,GI50,PC-3 prostate,1810 nM
same,TGI,PC-3 prostate,3.38 µM
same,GI50,A498 renal,2120 nM
same,TGI,A498 renal,7.59 µM
same,GI50,DU-145 prostate,1750 nM
same,TGI,DU-145 prostate,3.27 µM
same,GI50,BT-549 breast,5.92 µM
same,TGI,BT-549 breast,29.6 µM
same,GI50,SK-MEL-5 melanoma,1810 nM
same,TGI,SK-MEL-5 melanoma,3.21 µM
same,GI50,OVCAR-3 ovarian,1830 nM
same,TGI,OVCAR-3 ovarian,3.43 µM
same,GI50,SK-OV-3 ovarian,1790 nM
same,TGI,SK-OV-3 ovarian,3.35 µM
same,GI50,TK-10 renal,2070 nM
same,TGI,TK-10 renal,3.57 µM
same,GI50,SF-295 CNS,1830 nM
same,TGI,SF-295 CNS,3.32 µM
same,GI50,ACHN renal,1890 nM
same,TGI,ACHN renal,3.51 µM
Nc1nc(Nc2ccccc2)sc1C(=O)c1ccc(Cl)cc1,TGI,K-562 leukemia,> 100 µM
same,TGI,MDA-MB-231 breast,> 100000 nM
same,TGI,EKVX NSCLC,> 100 µM
same,TGI,SK-MEL-28 melanoma,> 100 µM
same,TGI,HCT-15 colon,> 100 µM
same,TGI,IGROV1 ovarian,> 100 µM
same,TGI,HT29 colon,> 100 µM
same,TGI,SNB-19 CNS,> 100 µM
same,TGI,SW-620 colon,> 49 µM
same,TGI,MCF7 breast,> 100 µM
same,TGI,T-47D breast,> 100 µM
same,TGI,SR leukemia,> 100 µM
same,TGI,BT-549 breast,> 100 µM
same,TGI,MOLT-4 leukemia,> 100 µM
same,TGI,KM12 colon,> 100 µM
same,TGI,NCI-H23 lung,> 100 µM
same,TGI,HOP-92 NSCLC,> 100 µM
same,TGI,OVCAR-5 ovarian,> 100 µM
same,TGI,SK-MEL-2 melanoma,> 100 µM
same,TGI,CAKI-1 renal,27.4 µM
same,TGI,COLO 205 colon,> 100000 nM
same,TGI,OVCAR-4 ovarian,3.01 µM
same,TGI,SF-539 CNS,> 100 µM
same,TGI,TK-10 renal,> 100 µM
same,TGI,RXF 393 renal,5.17 µM
same,TGI,HL-60(TB) leukemia,> 100 µM
same,TGI,SF-295 CNS,> 100 µM
same,TGI,M14 melanoma,> 100 µM
same,TGI,SF-268 CNS,> 100 µM
same,TGI,CCRF-CEM leukemia,> 100 µM
